Test results from patent US9227962B2, “Heterocyclic substituted-3-heteroarylidenyl-2-indolinone derivative” (Dainippon Sumitomo Pharma Co., Ltd., priority 2013, dated 2016).
In brackets after ≈: the same amount, converted by molar mass. Like-named read-outs stand apart in the source and are kept apart here.

Tests used:
[1] = solubility in buffer solution, HPLC; format: physicochemical; conditions: kinetic from dmso stock
Procedure: A solution of compounds (10 mM in dimethylsulfoxide, 2 μL) was diluted with 50% acetonitrile (198 μL), and this solution was used as a standard solution.
On the other hand, a solution of compounds (10 mM in dimethylsulfoxide, 15 μL) was transferred to a 96 well plate, then solvent was removed in vacuo. Dimethyl sulfoxide (3 μL) was added to dissolve a residual solid, and then buffer solution (pH7.4 or 1.2, 300 μL) was added. The mixture was vigorously stirred for 90 min, then leave it for 16-20 h. An insoluble material was removed, then the solution was analyzed by HPLC. The concentration of compound, which was corresponding to a solubility of the compound, was determined by the comparison with area value between sample and the standard solution.

[2] = test system: CD44high FaDu cancer stem cells; experiment: sphere assay (sphere formation of CSC); format: cell-based; conditions: Homo sapiens, spheres scored after 10-14 days
Description: CSC isolation with surface markers: Sorting tumor cells based primarily upon the differential expression of the surface marker(s), such as CD44 or CD133, have accounted for the majority of the highly tumorigenic CSCs described to date. CD44^high cells were isolated by FACS according to the methods described in Ponti et al, with slight modification [Ponti, D., et al, Isolation and in vitro propagation of tumorigenic breast cancer cells with stem/progenitor cell properties. Cancer Res, 2005. 65(13); p. 5506-11.], Briefly, after trypsinization and recovery of cells for 30 minutes at 37° C. in growth media, cells were pelleted at 400×g and were resuspended in PBS with 2% FBS and ImM EDTA at 1×10^6 cells/mL. Cells were then incubated on ice with a 1:100 dilution of CD44-FITC (BD Biosicences, San Diego, Calif.) for 15 minutes. Alternatively, CD24-PE (BD Bioscences, San Diego, Calif.) (1:100) was utilized for negative selection. After washing three times, cells were resuspended at […] and passed through a […] before sorting.
Sphere assay: A reliable method of measuring the self-renewal capacity of cell population if the ability to be cultured as spheres in the absence of serum or attachment. CD44^high FaDu cancer stem cells were cultured in ultra low attachment plates in cancer stem cell media (DMEM/F12, B27 Neurobasal supplement, 20 ng/ml EGF, 10 ng/rnl FGF, 4 µg/ml insulin, and 0.4% BSA) to allow spheres formation. Typically, sphere formation was evaluated by microscopy after 10-14 days in culture and spheres with >50 cells were scored.

FaDu = experiment: colony formation assay (cell viability determination); format: cell-based; conditions: Homo sapiens; FaDu cells, colonies counted after 7-10 days; read-out: colonyformation IC50
Procedure: Cell Culture: FaDu (ATCC, Manassas, Va.) was maintained in Dulbecco's Modified Eagle Medium (DMEM) (Invitrogen, Carlsbad, Calif.) supplemented with 10% fetal bovine serum (FBS) (Gemini Bio-Products, West Sacramento, Calif.) and 5% penicillin/streptomycin/amphotercin B (Invitrogen).
Cell Viability Determination: For colony formation assay, cells were plated in 6 well plates at 2000 cells per well. Twenty-four hours after plating, cells were treated with compound. Colonies were allowed to develop for 7-10 days, at which they were stained with modified Giemsa stain (Sigma). Stained colonies were then counted to determine IC50.

[3] = aqueous buffer, buffer solution pH 7.4, read-out: solubility pH 7.4
[4] = simulated gastric fluid, buffer solution pH 1.2, read-out: solubility pH 1.2

| SMILES | solubility [1, 3] [µg/mL] | solubility [1, 4] [µg/mL] | IC50 [2] [µM] | IC50 (FaDu) [µM] |
| --- | --- | --- | --- | --- |
| CCN(CC)CCNC(=O)c1c(C)[nH]c(/C=C2\C(=O)Nc3ccc(-c4cnc(-c5ccccc5)[nH]4)cc32)c1C [Example 41] | 0.3 (≈ 0.574 µM) | 186 (≈ 356 µM) | – | – |
| CCN(CC)CCNC(=O)c1c(C)[nH]c(/C=C2\C(=O)Nc3ccc(-c4nc(-c5ccccc5)n[nH]4)cc32)c1C [Example 50] | 7 (≈ 13.4 µM) | 154 (≈ 294 µM) | – | – |
| Cc1nc(-c2ccccc2)oc1-c1ccc2c(c1)NC(=O)/C2=C\c1[nH]c(C)c(C(=O)N2CCN(C)CC2)c1C [Example 38] | – | – | 2 | 6.2 |
| CCN(CC)CCNC(=O)c1c(C)[nH]c(/C=C2\C(=O)Nc3ccc(-c4ccc(-c5cccnc5)s4)cc32)c1C [Example 26] | < 0.5 | > 200 | – | – |
| Cc1[nH]c(/C=C2\C(=O)Nc3ccc(-c4cnn(-c5ccccn5)c4)cc32)c(C)c1C(=O)N1CCN(C)CC1 [Example 31] | – | – | 0.2 | – |
| Cc1[nH]c(/C=C2\C(=O)Nc3ccc(-c4cnn(-c5ccccn5)c4)cc32)c(C)c1C(=O)N1CCOCC1 [Example 30] | – | – | – | > 100 |

Further lines, with some results ahead:

| solubility [1, 3] [µg/mL] | solubility [1, 4] [µg/mL] | IC50 [2] [µM] | SMILES | IC50 (FaDu) [µM] |
| --- | --- | --- | --- | --- |
| 13 (≈ 24.8 µM) | 109 (≈ 208 µM) | – | CCN(CC)CCNC(=O)c1c(C)[nH]c(/C=C2\C(=O)Nc3ccc(-n4cc(-c5ccccc5)nn4)cc32)c1C [Example 49] | – |
| < 0.3 | 147 (≈ 281 µM) | – | CCN(CC)CCNC(=O)c1c(C)[nH]c(/C=C2\C(=O)Nc3ccc(-c4cn(-c5ccccc5)nn4)cc32)c1C [Example 48] | – |
| > 200 | > 200 | > 50 | CCN(CC)CCNC(=O)c1c(C)[nH]c(/C=C2\C(=O)Nc3ccc(C4CCN(C5CCOCC5)CC4)cc32)c1C [Example 12] | – |
| 0.5 (≈ 0.932 µM) | 43 (≈ 80.1 µM) | – | CCN(CC)CCNC(=O)c1c(C)[nH]c(/C=C2\C(=O)Nc3ccc(-c4cc(-c5ccccc5)nn4C)cc32)c1C [Example 55] | – |
| 0.4 (≈ 0.738 µM) | 163 (≈ 301 µM) | 1.9 | CCN(CC)CCNC(=O)c1c(C)[nH]c(/C=C2\C(=O)Nc3ccc(C4CCN(c5ncccn5)CC4)cc32)c1C [Example 43] | – |
| 4 (≈ 7.4 µM) | 163 (≈ 301 µM) | – | CCN(CC)CCNC(=O)c1c(C)[nH]c(/C=C2\C(=O)Nc3ccc(-c4nnc(-c5ccccc5)s4)cc32)c1C [Example 52] | – |
| 11 (≈ 20.4 µM) | > 200 | – | CCN(CC)CCNC(=O)c1c(C)[nH]c(/C=C2\C(=O)Nc3ccc(C4CCN(c5ccccc5)CC4)cc32)c1C [Example 42] | – |
| < 0.5 | > 200 | – | CCN(CC)CCNC(=O)c1c(C)[nH]c(/C=C2\C(=O)Nc3ccc(-c4nc(-c5ccccc5)cs4)cc32)c1C [Example 51, (Z)—N-(2-(diethylamino)ethyl)-2,4-dimethyl-5-((2-oxo-5-(4-phenylthiazol-2-yl)indolin-3-ylidene)methyl)-1H-pyrrole-3-carboxamide] | – |
| 61 (≈ 116 µM) | > 200 | – | CCN(CC)CCNC(=O)c1c(C)[nH]c(/C=C2\C(=O)Nc3ccc(-c4nnc(-c5ccccc5)o4)cc32)c1C [Example 53] | – |
| – | – | > 50 | CCN(CC)CCNC(=O)c1c(C)[nH]c(/C=C2\C(=O)Nc3ccc(C4CCN(C5CCN(C(C)=O)CC5)CC4)cc32)c1C [Example 45] | – |
